Entries after “also recorded” stand apart in the source; their conditions may differ. Like-named read-outs stand apart in the source and are kept apart here. Blank lines part the entries; values can stand above or below the molecule they belong to.
Legend:
PHD2181-402 [1] = target: T1, PHD2181-402 (Homo sapiens, UniProt Q9GZT9); assay: bioluminescent succinate detection assay of recombinant PHD2181-402 activity/inhibition; format: biochemical; details: for fold less effective at inhibiting PHD2181-402 than butyrate: compared with butyrate
T1 construct: made in house
T1 sequence (Q9GZT9 181-402): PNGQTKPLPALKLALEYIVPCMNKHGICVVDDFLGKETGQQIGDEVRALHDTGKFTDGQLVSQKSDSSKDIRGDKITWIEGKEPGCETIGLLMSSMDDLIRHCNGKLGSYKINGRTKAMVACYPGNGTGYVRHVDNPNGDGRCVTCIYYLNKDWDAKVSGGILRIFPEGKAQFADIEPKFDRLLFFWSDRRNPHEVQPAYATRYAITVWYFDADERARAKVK
Excerpt: To pinpoint if butyrate inhibits PHDs directly, we expressed recombinant PHD derived from the human PHD2 sequence. There are three human PHDs: PHD1, PHD2, and PHD3, with PHD2 being the most abundant and expressed in the majority of tissues, the most important regulator of HIF, particularly HIF-1α, and the only PHD that is embryonically lethal when deleted. PHD1 is exclusively localized to the nucleus, whereas PHD2 is mainly cytoplasmic, and PHD3 is both. […] Sequence comparisons and modeling studies indicate that the PHD2 active site is highly conserved among the PHDs.
IC50s depend on exact experimental conditions, making direct comparisons and global applications difficult.

PHDs = details: range across studies, assay conditions vary; read-out: reported IC50s; cited from earlier work
[2] = test system: PHD (2-OG accumulation) in T84 IECs; assay: 2-OG levels in T84 cells as biomarker of PHD inhibition; format: cell-based; details: 3 h, 10 mM butyrate, 30 μM IOX2
Protocol: (B) 2-OG concentrations in T84 cells treated with 10 mM butyrate with or without 1 mM MCPA or 30 μM IOX2 for 3 h
The relationship between butyrate and HIF, were examined whether butyrate influences PHD activity by monitoring 2-OG levels. […] In this, we considered such 2-OG accumulation as a metabolic biomarker of PHD inhibition (FIG. 3A).

[3] = test system: HIF-1α / PHDs in murine colon tissue; assay: rectal gavage of butyrate or IOX2 in antibiotic SCFA-depleted mice; format: in vivo; details: 1 h, 100 mM butyrate, 1.5 mM IOX2
HIF1α in caco-2 cells = assay: HIF1α MSD assay and immunoblot in caco-2 cells; format: cell-based; details: for BNIP3 immunoblot over time: c2bbe cell lysates, various timepoints
Protocol: (A) Structures of butyrate derivatives investigated in initial screen for HIF stabilization. […] (D) Dose response study of HIF1a accumulation in T84 cells treated with decreasing concentrations of MBA and BA for 6 h.
(A) Immunoblots of HIF1a protein over time after exposure of T84 cells to 5 mM BA and MBA. (B) Mesoscale assay of HIF1a protein over time in caco-2 cells treated with 5 mM MBA compared to veh. […] Data are presented as mean+S.E.M, *p<0.05, **p<0.01, ***p<0.001.
HIF1a Mesoscale assay of BA derivatives investigated in caco-2 (A) and T84 (B) intestinal epithelial cells (5 mM, 6 h), identifying MBA as a promising candidate in HIF1a stabilization (Veh=HBSS+).
(§1) Endogenous and non-endogenous butyrate derivatives with specifically chosen functional groups at different positions within the small molecule and assess their effects on HIF stabilization (FIG. 21A). To study a small library of butyrate derivatives we employed an electrochemiluminescence based assay to quantify HIF1α levels using the Meso Scale Discovery (HIF1α MSD assay, http://www.mesoscale.com) technology. Similar to the sandwich enzyme-linked immunosorbent assay (ELISA), this technology captures and detects HIF1α protein using two specific antibodies but utilizes electrochemiluminescence-based signal generation and detection. Using lysates from intestinal epithelial cells (IECs) caco-2 and T84 exposed to a physiological relevant concentration of 5 mM butyrate derivatives for 4h, this assay was employed to determine HIF1α protein concentration. A bona-fide and potent PHD2 inhibitor (IOX4) was used to stabilize HIF1α as a positive control. Various butyrate derivatives increased HIF1α relative concentration in both cell lines compared to low signals detected in untreated lysates. […] We decided to focus on this interesting butyrate derivative for further studies.
(§2) To elucidate the effectiveness of MBA to stabilize HIF1α over time and possibly shine light on how quickly it can be metabolized in-vitro, time-course studies where performed between BA and MBA, IOX4 was used as a positive control. […] Employing the HIF1α MSD assay, we screened for various timepoints in caco-2 cell lysates exposed to MBA (5 mM). […] BNIP3 is involved in cell survival and is a known HIF1α target that is induced through chemical stabilization of HIF or hypoxia. BNIP3 promoter comprises a functional hypoxia response element (HRE) and can be activated by HIF1α.[5] Parallel to our HIF stabilization time course studies, we wanted to assess the transcriptional activity of the stabilized protein over time.

HIF1α in T84 cells = assay: HIF1α immunoblot in T84 cells (MBA vs BA); format: cell-based; details: for HIF1α stabilization over time (immunoblot): 5 mM BA and MBA, IOX4 positive control
Protocol: (A) Structures of butyrate derivatives investigated in initial screen for HIF stabilization. Immunoblot of HIF1a protein levels in Caco-2 cells (B) and T84 cells (C) exposed to veh (HBSS+), […], or 5 mM butyrate derivatives for 6h. (D) Dose response study of HIF1a accumulation in T84 cells treated with decreasing concentrations of MBA and BA for 6 h.
(A) Immunoblots of HIF1a protein over time after exposure of T84 cells to 5 mM BA and MBA. (B) Mesoscale assay of HIF1a protein over time in caco-2 cells treated with 5 mM MBA compared to veh. (C) HIF1a and HIF target (BNIP3) protein in caco-2 cells exposed to veh (HBSS+), […] or 5 mM MBA. Data are presented as mean+S.E.M, *p<0.05, **p<0.01, ***p<0.001.
as §1, §2

[4] = test system: HIF target genes in T84 cells; assay: real-time PCR of HIF target genes BNIP3 and CAIX in T84 cells; format: cell-based; details: 16h
Protocol: (A) Exposure of T84 cells to Veh, BA or MBA (5 mM, 16 h) induced HIF target gene expression of CAIX and BNIP3. […] (C) Non-targeting control and T84 HIF1b depleted cells were analyzed for HIF1b expression by western blotting, shown with a representative blot. Quantification of HIF1b decrease was performed using ACTB-normalized densitometry. qPCR data was analyzed by One-way ANOVA with Bonferroni for post hoc correction and presented as mean±S.E.M, **p<0.01, ***p<0.001, ****p<0.0001 of three independent experiments.
Following these findings, we then explored if the MBA-induced stabilization of HIF was reflected in the transcriptional regulation of target genes. We utilized real-time PCR to study the influence of MBA mediated HIF stabilization in the induction of established HIF targets, BNIP3 (cell survival) and CAIX (pH regulation).
Furthermore, to confirm MBA-induced HIF transcriptional activity, we quantified the induction of BNIP3 and CAIX by BA or MBA (5 mM, 16h) in lentiviral shRNA-mediated knockdown of HIF1β relative to non-targeting shRNA controls. […] These findings confirm that through MBA exposure, HIF is stabilized and it is transcriptionally active.

HIF regulated targets = assay: intraperitoneal injection in C57BL/6 mice, HIF regulated targets (EPO, GLUT1); format: in vivo; details: MBA 80 mg/kg, 24h
Protocol: Erythropoietin (EPO) is regulated by HIF stabilization. (A) EPO protein in blood serum was assessed by mesoscale assay (n=6-8). qPCR mRNA expression of HIF target mGLUT1 in kidney (B) and colon tissue (C) (n=3-8). Data analyzed by One-way ANOVA with Tukey for post hoc correction and presented as mean±S.E.M of two independent experiments, *p<0.05, **p<0.01, ***p<0.001, ****p<0.0001 […]
At 24 h, mice were sacrificed followed by exsanguination, extraction of right kidney and distal colon for analysis of HIF stabilization and HIF target gene expression. SHBA induces HIF regulated targets in vivo. Erythropoietin (EPO) is regulated by HIF stabilization. (A) EPO protein in blood serum was assessed by mesoscale assay (n=6-8). (B) qPCR mRNA expression of HIF target mGLUT1 in colon tissue (n=3-4). Data are presented as mean±S.E.M of two independent experiments, *p<0.05, **p<0.01.
A typical physiologic response to hypoxia is the increase in red blood cell production. Naturally, HIF is in charge of this response by regulating cell-type specific gene expression that leads to increased levels of the hormone erythropoietin (EPO).[10] […] We lastly explored the in-vivo effects of MBA in mediating induction of genes tightly regulated by HIF. […] After 24h of treatment, they were sacrificed and quickly exsanguinated to measure EPO levels in serum. […] Furthermore, we studied the induction of GLUT1, another classic HIF target responsible for the transport of various monosaccharides. Kidney and colon tissue were analyzed by real-time PCR to compare BA and MBA head-to-head. […] These findings support the ability of MBA to stabilize HIF in-vivo leading to the induction of classic target genes and transcription of a tightly regulated protein EPO.

PHD2181-402 [5] = target: T1, PHD2181-402; assay: WaterLOGSY 1D NMR binding to PHD2181-402; details: 10 mM SCFA, 25 μM PHD2181-402
Excerpt: Protons attached to C4 were selectively inverted and acted as source of magnetization transfer. […] (G) Protons attached to C2 were selectively inverted.
Measurements were repeated 3 times.
This method enables sensitive and robust detection of binding (dissociation constants as weak as μM to low mM) based on the magnetization transfer between water molecules, proteins, and ligands of interest in close proximity via dipolar proton-proton cross-relaxation (nuclear Overhauser effect, NOE). […] Binding and non-binding ligands can be distinguished in a WaterLOGSY spectrum via their opposite signs in relation to water for their corresponding peaks.
This technique allows for mapping of the ligand pharmacophore by monitoring the response of individual protons to an increase of ROEs contribution to the overall cross relaxation rate.

[6] = calculated from measured IC50 accounting for substrate conversion, n = 4, error: SEM, read-out: True IC50 for PHD2181-402

SMILES: CCC(CC)C(=O)O [2-Ethylbutyrate]
IC50 (PHD2181-402 [1]; [6]): 77 ± 6 mM

SMILES: O=C(O)CNC(=O)c1c(O)c2ccccc2n(Cc2ccccc2)c1=O [IOX2, reference compound]
2-OG levels compared to control [2]: to lesser extent than butyrate
colon tissue 2-OG levels after antibiotics [3]: rescued
mRNA expression of HIF-1α targets Bnip3, Bnip3l, Glu1 after antibiotics [3]: rescued

SMILES: CC(C)(C)OC(=O)c1ccc(-n2[nH]cc(-n3ccnn3)c2=O)nc1 [IOX4, reference compound]
BNIP3 immunoblot over time (HIF1α in caco-2 cells): supported active HIF1α transcription
HIF1α stabilization over time (immunoblot) (HIF1α in T84 cells; T84 cells): no longer effective at the 72h timepoint

SMILES: O=C(O)CCCS [MBA, 4-Mercaptobutyrate]
BNIP3 immunoblot over time (HIF1α in caco-2 cells): supported active HIF1α transcription
HIF1α immunoblot compared with IOX4 (HIF1α in caco-2 cells; caco-2, 5 mM MBA vs IOX4 (10 μM)): at least as much as IOX4
HIF1α immunoblot compared with butyrate (HIF1α in caco-2 cells; caco-2, equimolar concentration (5 mM)): exceeding the capabilities of butyrate
HIF1α relative concentration over time (MSD assay) (HIF1α in caco-2 cells; caco-2 cell lysates, 5 mM, up to 72h): rapidly stabilized (3h)
HIF1α relative concentration (MSD assay) (HIF1α in caco-2 cells; caco-2 lysates, 5 mM, compared with IOX4): exceeded HIF stabilization in caco-2 compared to the potent IOX4 PHD2 inhibitor
HIF target gene induction compared to BA ([4]; T84, 5 mM): more potent than BA; also recorded: more prominent induction of HIF target genes compared to BA
induction of HIF target genes BNIP3 and CAIX ([4]; T84, 5 mM): significant induction
induction of BNIP3 and CAIX in cells lacking HIF1β ([4]; T84 HIF1β shRNA knockdown, 5 mM): complete loss of induction
GLUT1 mRNA in colon tissue (HIF regulated targets; IP, BA 73 mg/kg): significantly increased in colon tissue
GLUT1 mRNA in kidney (HIF regulated targets; IP, BA 73 mg/kg): induction of GLUT1 in kidney
EPO concentration in serum (HIF regulated targets; one IP injection, compared to vehicle, DMOG and BA): significantly higher concentration of EPO
HIF1α immunoblot compared with butyrate (HIF1α in T84 cells; T84, equimolar concentration (5 mM)): exceeding the capabilities of butyrate
HIF1α stabilization over time (immunoblot) (HIF1α in T84 cells; T84 cells): observed clearly up to 72h
dose response of HIF1α accumulation (HIF1α in T84 cells; T84 cells, decreasing concentrations, 6 h): can stabilize HIF at the low millimolar range

Continued, in another order:

IC50 (PHD2181-402 [1]; [6]): 14 ± 1 mM
SMILES: CC(O)CC(=O)O (centres unmarked) [3-Hydroxybutyrate]

IC50 (PHD2181-402 [1]; 1 μM PHD2181-402, 10 μM 2-OG, 10-minute reaction, n=5-12, error: SEM, read-out: true half maximal inhibitory concentration (IC50) for PHD2181-402): 1.9 ± 0.5 mM
SMILES: COC(=O)CNC(=O)C(=O)OC [DMOG, dimethyloxalylglycine, reference compound]
IC50 (PHDs): 0.00289 to 4 mM

fold less effective at inhibiting PHD2181-402 than butyrate (PHD2181-402 [1]): ~10 fold
binding to PHD2181-402 by WaterLOGSY (PHD2181-402 [5]): no binding
SMILES: CC(=O)O [acetate, Acetic acid, reference compound]

fold less effective at inhibiting PHD2181-402 than butyrate (PHD2181-402 [1]): ~10 fold
binding to PHD2181-402 by WaterLOGSY (PHD2181-402 [5]): no binding
SMILES: CCC(=O)O [propionate, propionic acid, reference compound]

fold less effective at inhibiting PHD2181-402 than butyrate (PHD2181-402 [1]): ~3 fold
binding to PHD2181-402 by WaterLOGSY (PHD2181-402 [5]): no binding
SMILES: CCCCC(=O)O [valerate, valeric acid, reference compound]

Source: patent US20250235418A1, “Butyrate Analogues and Methods of Use for HIF Stabilization and Treatment of Bowel Disease” (THE REGENTS OF THE UNIVERSITY OF COLORADO, A BODY CORPORATE, priority 2022, published 2025)
